The assay is described as follows: Binding affinity to VDR in scrambled siRNA-transfected human MCF7 cells assessed as cell growth inhibition by measuring reduction in BrdU incorporation after 16 hrs by ELISA. (Incorporation of labelled thymidine or its analogues reports DNA synthesis.)
Take `CCn1c(C(=O)N[C@@H](C)CO)ccc1C(CC)(CC)c1ccc(OCC(O)C(C)(C)C)c(C)c1` (stereo partly drawn): the 50% inhibitory concentration (IC50) amounted to 4300 nM.

As to `CCN(CC)CCNC(=O)c1ccc(C(CC)(CC)c2ccc(OCSC)c(C)c2)n1CC`, the IC50 is 970 nM. For `CCN(CC)CCNC(=O)c1cc(C(CC)(CC)c2ccc(OCS(=O)(=O)c3ccccc3)c(C)c2)cn1CC`, the IC50 amounted to 650 nM.

What is called IC50 is the concentration that inhibits the measured activity by half.

For the origin of these results see BindingDB's records for doi:10.1016/j.ejmech.2018.08.085 (China Pharmaceutical University, 2018).
